Results: ChEMBL document CHEMBL1212732, “Conformational inhibition of the hepatitis C virus internal ribosome entry site RNA” (Nat Chem Biol, 2009)
Activity calls are given as the source filed them. The calls are words filed in the database; no cut-off is given here.

Columns and labels:
[1] = target: Internal ribosome entry site (IRES); assay: Binding affinity to HCV 2AP54-labelled IRES subdomain 2a RNA in presence of 1 mM Mg2+ by FRET assay; assay type: nucleic-acid assay, Hepacivirus hominis
Hepatitis C virus [2] = assay: Inhibition of HCV 1b replicon translation in human HuH7 cells transfected with BM4-5 FEO HCV replicon RNA after 4 hrs by luciferase reporter assay; assay type: functional, organism-based, Hepacivirus hominis; conditions: genotype 1b, Huh-7, 4 h
[3] = target: Internal ribosome entry site (IRES); assay: Binding affinity to HCV 2AP54-labelled IRES subdomain 2a RNA in presence of 0.3 mM Mg2+ by FRET assay; assay type: nucleic-acid assay, Hepacivirus hominis
[4] = target: Internal ribosome entry site (IRES); assay: Binding affinity to HCV 2AP54-labelled IRES subdomain 2a RNA by mass spectrometry; assay type: nucleic-acid assay, Hepacivirus hominis
Hepatitis C virus [5] = assay: Inhibition of HCV 1b replicon translation in human HuH7 cells transfected with BM4-5 FEO HCV replicon RNA after 48 hrs by luciferase reporter assay; assay type: functional, organism-based, Hepacivirus hominis; conditions: genotype 1b, Huh-7, 48 h
[6] = target: Internal ribosome entry site (IRES); assay: Binding affinity to HCV 2AP54-labelled IRES subdomain 2a RNA C55A mutant in presence of 1 mM Mg2+ by FRET assay; assay type: nucleic-acid assay, Hepacivirus hominis
[7] = target: Internal ribosome entry site (IRES); assay: Binding affinity to HCV 2AP54-labelled IRES subdomain 2a RNA U56G/A57U mutant in presence of 1 mM Mg2+ by FRET assay; assay type: nucleic-acid assay, Hepacivirus hominis
[8] = tested on: Internal ribosome entry site (IRES); assay: Binding affinity to HCV 2AP54-labelled IRES subdomain 2a RNA in presence of Mg2+ by FRET assay in presence of eukaryotic tRNA; assay type: nucleic-acid assay; conditions: Hepacivirus hominis
Hepacivirus hominis [9] = assay: Inhibition of HCV NS5B RNA dependent RNA polymerase after 60 mins
[10] = tested on: Internal ribosome entry site (IRES); assay: Binding affinity to HCV 2AP54-labelled IRES subdomain 2a RNA in presence of Mg2+ by FRET assay; assay type: nucleic-acid assay; conditions: Hepacivirus hominis
[11] = target: Internal ribosome entry site (IRES); assay: Binding affinity to HCV 2AP54-labelled IRES subdomain 2a RNA C55U mutant in presence of 1 mM Mg2+ by FRET assay; assay type: nucleic-acid assay, Hepacivirus hominis
Hepatitis C virus [12] = assay: Inhibition of HCV 1b replicon translation in human HuH7 cells transfected with BM4-5 FEO HCV replicon RNA A57U mutant by luciferase reporter assay relaitv to wild type; assay type: functional, Hepacivirus hominis, genotype 1b, Huh-7
Hepatitis C virus [13] = assay: Inhibition of HCV 1b replicon translation in human HuH7 cells transfected with BM4-5 FEO HCV replicon RNA after 8 hrs by luciferase reporter assay; assay type: functional, organism-based, Hepacivirus hominis; conditions: genotype 1b, Huh-7, 8 h
Hepacivirus hominis [14] = assay: Inhibition of HCV NS5B RNA dependent RNA polymerase after 24 mins
[15] = Cytotoxicity against human HuH7 cells at 0.25-25 uM after 48 hrs by colorimetric viability assay; assay type: cell-based; conditions: huh-7, 48 h
[16] = tested on: Internal ribosome entry site (IRES); assay: Binding affinity to HCV Cy3/Cy5-labelled IRES subdomain 2a RNA by FRET assay; assay type: nucleic-acid assay; conditions: Hepacivirus hominis
[17] = target: Internal ribosome entry site (IRES); assay: Binding affinity to HCV 2AP54-labelled IRES subdomain 2a RNA A57U mutant in presence of 1 mM Mg2+ by FRET assay; assay type: nucleic-acid assay, Hepacivirus hominis
[18] = target: Internal ribosome entry site (IRES); assay: Binding affinity to HCV 2AP54-labelled IRES subdomain 2a RNA A54G mutant in presence of 1 mM Mg2+ by FRET assay; assay type: nucleic-acid assay, Hepacivirus hominis
[19] = target: Internal ribosome entry site (IRES); assay: Binding affinity to HCV 2AP54-labelled IRES subdomain 2a RNA C58A mutant in presence of 1 mM Mg2+ by FRET assay; assay type: nucleic-acid assay, Hepacivirus hominis

Compound | EC50 [1] | IC50 (Hepatitis C virus [2]) | EC50 [3] | Kd [4] | IC50 (Hepatitis C virus [5]) | EC50 [6] | EC50 [7] | Activity [8] | inhibition (Hepacivirus hominis [9]) | Activity [10] | EC50 [11] | inhibition (INH) (Hepatitis C virus [12]) | IC50 (Hepatitis C virus [13]) | inhibition (Hepacivirus hominis [14]) | Activity [15] | Activity [16] | EC50 [17] | EC50 [18] | EC50 [19]
CN(C)CC(CO)Cn1c(N)nc2ccc3c(c21)CC(CO)CO3 (stereo not given) | 90000 nM |  |  |  |  |  |  |  |  |  |  |  |  |  |  |  |  |  | 
CN(C)CC1COc2ccc3nc4n(c3c2C1)CC(CN(C)C)CN4 (stereo not given) | 600 nM | 4000 nM | 260 nM | 720 nM | 2000 nM | 650 nM | 4100 nM | Active | Active | Dose-dependent effect | 320 nM | 15% | 9500 nM | Active | Toxic | inactive | 4200 nM | 490 nM | 760 nM
